# What was measured:
# [1] = in vivo; cited from earlier work
# [2] = test system: gastric wall; assay: Abdominal MRI studies in mice with automated segmentation (Example 5); type: in vivo
# Protocol: Ten abdominal MRI studies in mice were performed under three conditions in sequential order: fasting pre-contrast, fasting post-contrast, and postprandial post-contrast (after feeding with 80 μL egg yolk). Five studies each were conducted with a commercially-available gadolinium contrast agent (gadopentetic acid, Magnevist™) and with Gd-DOTA-3COOH-S-Pantoprazole. Mice were administered 2.5 mg of Magnevist or Gd-DOTA-3COOH-S-Pantoprazole in a volume of 10 μL intravenously. […] In these images the gastric lumen is marked “s.” The images were analyzed by standard techniques (i.e., full-width-half-maximum method). Following administration of Magnevist, the uptake signal increased diffusely, as shown by the arrow. […] In the Gd-DOTA-3COOH-S-Pantoprazole study, the algorithm only identified the stomach boundary after contrast, i.e., fasting and postprandial images, but the conjugate was capable of discriminating the stomach wall from its contents and surrounding tissues. Comparison of gastric wall signal intensity over time after intravenous Magnevist and Gd-DOTA-3COOH-S-Pantoprazole is shown in FIG. 9. Data were sampled at 120 equidistant points around the gastric wall.
"splenic uptake / gastro-splenic boundary ([2]; 2.5 mg intravenously, FIG. 7)",Compound,blood clearance time [1],"gastric wall signal and automated segmentation of the gastric outline ([2]; 2.5 mg intravenously, full-width-half-maximum method, FIG. 6)","gastric wall signal intensity over time: difference between fasting post contrast and postprandial post contrast images ([2]; 120 equidistant points around the gastric wall, FIG. 9)","gastric wall thickness measurements ([2]; segmentation algorithm, FIG. 7 and FIG. 8)"
–,"O=C([O-])CN(CCN(CC(=O)[O-])CC(=O)O)CCN(CC(=O)[O-])CC(=O)O.[Gd+3] [Gd(DTPA), gadolinium diethylenetriaminepentaacetate]",approximately 2 minutes,–,–,–
marked splenic uptake,"CNC[C@H](O)[C@@H](O)[C@H](O)[C@H](O)CO.CNC[C@H](O)[C@@H](O)[C@H](O)[C@H](O)CO.O=C([O-])CN(CCN(CC(=O)[O-])CC(=O)O)CCN(CC(=O)[O-])CC(=O)O.[Gd+3] [Magnevist, gadopentetic acid, reference compound]",–,could not accurately identify the gastric outline,higher difference,overestimates stomach wall thickness
